Results taken from the supplement of paper PMC4862054.

Key:
[1] = system: DU-4475; assay: normalised viability (% of control), CellTiter-Blue; higher = more viable cells (about 100 = DMSO control); conditions: incubation time: 72 h
In short: (§1)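 Breast cancer cell lines in 20 µl suspension were seeded onto 384-well plates pre-loaded with compound dissolved in 5 µl medium, then incubated 72 h. CellTiter-Blue reagent (2.5 µl) was added for 2 h at 37 °C and fluorescence read at 560/590 nm. Each plate was normalised to vehicle (100) and a positive kill control (0), with Z'-factor quality control. The value is normalised viability at one listed concentration of the series.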

[2] = system: MDA-MB-436; assay: as above; conditions: incubation time: 72 h
In short: as §1

[3] = system: MDA-MB-453; assay: as above; conditions: incubation time: 72 h
In short: as §1

[4] = system: BT-549; assay: as above; conditions: incubation time: 72 h
In short: as §1

[5] = system: BT-474; assay: drug sensitivity score (DSS), CellTox Green (DSS (AUC-based score)); higher = stronger drug effect (viability inhibition or cytotoxicity); extreme values may be limits of the assay; conditions: incubation time: 72 h
In short: (§2)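 A drug sensitivity score was derived from the area under each fitted dose-response curve. Breast cancer cells (20 µl suspension) were seeded onto compound in 384-well plates, using 5 concentrations 10-fold apart over a compound-specific 10,000-fold range, and incubated 72 h. Readouts were CellTox Green fluorescence and then CellTiter-Glo luminescence, with every plate normalised to 0.1 % DMSO and a positive kill control.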

[6] = system: CAL-148; assay: as above; conditions: incubation time: 72 h
In short: as §2

[7] = system: Hs578T; assay: as above; conditions: incubation time: 72 h
In short: as §2

[8] = system: HCC1143; assay: as above; conditions: incubation time: 72 h
In short: as §2

[9] = system: MDA-MB-231; assay: as above; conditions: incubation time: 72 h
In short: as §2

[10] = system: HCC1937; assay: as above; conditions: incubation time: 72 h
In short: as §2

[11] = system: CAL-85-1; assay: as above; conditions: incubation time: 72 h
In short: as §2

[12] = system: BT-474; assay: normalised viability (% of control), CellTiter-Blue; higher = more viable cells (about 100 = DMSO control); conditions: 100 nM; incubation time: 72 h
Protocol: (§3)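 DSRT, CellTiter-Blue viability, 72 h incubation. Signal is normalised to DMSO and benzethonium chloride controls. Value is the normalised response at dose 3.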

[13] = system: CAL-148; assay: as above; conditions: 10 nM; incubation time: 72 h
Protocol: as §3

[14] = system: DU-4475; assay: as above; conditions: 10 nM; incubation time: 72 h
Protocol: as §3

[15] = system: MDA-MB-436; assay: as above; conditions: 100 nM; incubation time: 72 h
Protocol: as §3

[16] = system: Hs578T; assay: as above; conditions: 100 nM; incubation time: 72 h
Protocol: as §3

[17] = system: CAL-51; assay: as above; conditions: 10 nM; incubation time: 72 h
Protocol: as §3

[18] = system: MDA-MB-453; assay: as above; conditions: 10 nM; incubation time: 72 h
Protocol: as §3

[19] = system: HCC1143; assay: as above; conditions: 100 nM; incubation time: 72 h
Protocol: as §3

[20] = system: HDQ-P1; assay: as above; conditions: 10 nM; incubation time: 72 h
Protocol: as §3

[21] = system: SK-BR-3; assay: as above; conditions: 100 nM; incubation time: 72 h
Protocol: as §3

[22] = system: MDA-MB-231; assay: as above; conditions: 100 nM; incubation time: 72 h
Protocol: as §3

[23] = system: MDA-MB-468; assay: as above; conditions: 100 nM; incubation time: 72 h
Protocol: as §3

[24] = system: MFM-223; assay: as above; conditions: 100 nM; incubation time: 72 h
Protocol: as §3

[25] = system: HCC1937; assay: as above; conditions: 100 nM; incubation time: 72 h
Protocol: as §3

[26] = system: CAL-120; assay: as above; conditions: 100 nM; incubation time: 72 h
Protocol: as §3

[27] = system: BT-549; assay: as above; conditions: 100 nM; incubation time: 72 h
Protocol: as §3

[28] = system: HCC1599; assay: as above; conditions: 100 nM; incubation time: 72 h
Protocol: as §3

[29] = system: CAL-85-1; assay: as above; conditions: 10 nM; incubation time: 72 h
Protocol: as §3

Compound	normalised viability ([1]; 3 nM) [%]	normalised viability ([1]; 30 nM) [%]	normalised viability ([1]; 100 nM) [%]	normalised viability ([2]; 10 nM) [%]	normalised viability ([2]; 1000 nM) [%]	normalised viability ([2]; 10000 nM) [%]	normalised viability ([3]; 3 nM) [%]	normalised viability ([3]; 30 nM) [%]	normalised viability ([3]; 100 nM) [%]	normalised viability ([4]; 10 nM) [%]	normalised viability ([4]; 1000 nM) [%]	normalised viability ([4]; 10000 nM) [%]	drug sensitivity score [5]	drug sensitivity score [6]	drug sensitivity score [7]	drug sensitivity score [8]	drug sensitivity score [9]	drug sensitivity score [10]	drug sensitivity score [11]	normalised viability [12] [%]	normalised viability [13] [%]	normalised viability [14] [%]	normalised viability [15] [%]	normalised viability [16] [%]	normalised viability [17] [%]	normalised viability [18] [%]	normalised viability [19] [%]	normalised viability [20] [%]	normalised viability [21] [%]	normalised viability [22] [%]	normalised viability [23] [%]	normalised viability [24] [%]	normalised viability [25] [%]	normalised viability [26] [%]	normalised viability [27] [%]	normalised viability [28] [%]	normalised viability [29] [%]
Cc1ccc(-n2nc(C(C)(C)C)cc2NC(=O)Nc2ccc(OCCN3CCOCC3)c3ccccc23)cc1 [Doramapimod]	123	89.1	97.1	84.4	33.9	71.5	109	105	106	98.1	104	84.7	0	0	3.19	0	0	0	0	93.8	95.3	106	86	78	110	106	100	93.8	69.7	92.5	98	109	94.7	87.3	98.7	90.9	91.1
C#Cc1cccc(Nc2ncnc3cc(OCCOC)c(OCCOC)cc23)c1 [Erlotinib]	107	90.7	86.7	108	83.9	74	109	99.2	98	117	106	66.9	0.507	0	0	0		0	6.41	103	98.8	94.9	109	85.4	102	114	92.9	109	88.7	96.6	95	88.5	106	102	110	78	95.4
CC1(C)NC(=O)N(c2ccc([N+](=O)[O-])c(C(F)(F)F)c2)C1=O [Nilutamide]	88	108	90.7	113	110	102	120	87.5	109	97.2	85.5	97.2	0	0	0		0	0	0	119	95	100	96.6	111	101	112	96.2	149	95.4	106	94.2	92.4	99.7	99.4	99.6	95.5	105
